Assay results taken from US20110306636A1, “OXAZOLE PYRIDINE DERIVATIVES USEFUL AS S1P1 RECEPTOR AGONISTS” (Merck Serono SA, priority 2009, published 2011).
Where a name gives a salt, the structure may show the parent alone. Read-outs that look alike come from different tables or passages of the source.

Assays:
S1P3 = S1P3 (Homo sapiens, UniProt Q99500); experiment: Receptor binding assay, [33P]sphingosine 1-phosphate competition, S1P3
Procedure: (§1) Membranes Preparation: Membranes were prepared from CHO cells expressing S1P1 or S1P3 for use in ligand and 35S-GTPγS binding studies. Cells were suspended in 50 mM TRIS, pH 7.4, 2 mM EDTA, 250 mM Sucrose (buffer A) and 1× Complete protease inhibitor cocktail (Roche), and disrupted at 4° C. by N2 decompression using a cell disruption bomb (Parr Instrument). Following centrifugation at 1000 RPM for 10 min at 4° C., the supernatant was diluted (2×) in buffer A and centrifuged again at 19000 RPM for 75 min at 4° C. The pellet was then suspended in 10 mM HEPES, pH 7.4, 1 mM EDTA, 250 mM Sucrose (Buffer B), and 1× Complete EDTA-free protease inhibitor cocktail and homogenized using a potter. Membranes were flash frozen in liquid N2 and stored at −80° C.
(§2) Receptor binding assay: [33P]sphingosine 1-phosphate (3000 Ci/mmol; American Radiolabeled Chemicals, Inc.) was added to test compounds in 20% DMSO by competition. Membranes and WGA SPA beads (GE Healthcare) were added to give a final volume of 100 μl in 96-well plates or 50 μl in 384-well plates with assay concentrations of 30 pM or 15 pM [33P]sphingosine 1-phosphate (respectively for S1P1 or S1P3), 50 mM HEPES, pH 7.5, 5 mM MgCl2, 100 mM NaCl, 0.4% fatty acid-free BSA, 1-5 μg/well of proteins in 96-well plates vs 0.6-1 μg/well of proteins in 384-well plates and 100 μg/well of WGA SPA beads in 96-well plates vs 75 μg/well of WGA SPA beads in 384-well plates. Binding was performed for 60 min at RT on a shaker and bound radioactivity was measured on a PerkinElmer 1450 MicroBeta counter. Triplicate samples were averaged and normalized as purcentage of inhibition relative to total binding (only DMSO in well) and non specific binding (1000-fold excess of unlabeled S1P). Binding data were analyzed using the GraphPad Prism program or Genedata software.

S1P1 = S1P1 (Homo sapiens, UniProt P21453); experiment: Receptor binding assay, [33P]sphingosine 1-phosphate competition, S1P1
Sequence of S1P1 (P21453 whole entry, species assumed): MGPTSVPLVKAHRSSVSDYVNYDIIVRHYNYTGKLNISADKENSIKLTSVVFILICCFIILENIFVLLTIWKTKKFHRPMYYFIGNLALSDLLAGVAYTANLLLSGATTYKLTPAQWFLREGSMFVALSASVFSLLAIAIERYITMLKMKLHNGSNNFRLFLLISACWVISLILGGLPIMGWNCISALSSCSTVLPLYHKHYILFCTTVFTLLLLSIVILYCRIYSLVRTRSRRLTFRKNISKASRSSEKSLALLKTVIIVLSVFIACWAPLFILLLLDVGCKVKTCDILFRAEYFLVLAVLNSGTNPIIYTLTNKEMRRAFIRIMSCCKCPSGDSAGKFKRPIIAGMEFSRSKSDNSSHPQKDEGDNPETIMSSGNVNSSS
Procedure: as §1, §2

[1] = molecular target: T1, human S1P1 Receptor fused to the green fluorescent protein (EGFP) (Homo sapiens, UniProt P21453); experiment: Internalization of S1P1 in S1P1-U2OS cells by cell imaging analysis; assay type: cell-based; details: 1 hour incubation, 384-well
T1 construct: host or cells: U2OS (human bone osteosarcoma epithelial cells), CMV promoter, geneticin selection
T1 sequence (P21453 with tags, fused parts or gaps): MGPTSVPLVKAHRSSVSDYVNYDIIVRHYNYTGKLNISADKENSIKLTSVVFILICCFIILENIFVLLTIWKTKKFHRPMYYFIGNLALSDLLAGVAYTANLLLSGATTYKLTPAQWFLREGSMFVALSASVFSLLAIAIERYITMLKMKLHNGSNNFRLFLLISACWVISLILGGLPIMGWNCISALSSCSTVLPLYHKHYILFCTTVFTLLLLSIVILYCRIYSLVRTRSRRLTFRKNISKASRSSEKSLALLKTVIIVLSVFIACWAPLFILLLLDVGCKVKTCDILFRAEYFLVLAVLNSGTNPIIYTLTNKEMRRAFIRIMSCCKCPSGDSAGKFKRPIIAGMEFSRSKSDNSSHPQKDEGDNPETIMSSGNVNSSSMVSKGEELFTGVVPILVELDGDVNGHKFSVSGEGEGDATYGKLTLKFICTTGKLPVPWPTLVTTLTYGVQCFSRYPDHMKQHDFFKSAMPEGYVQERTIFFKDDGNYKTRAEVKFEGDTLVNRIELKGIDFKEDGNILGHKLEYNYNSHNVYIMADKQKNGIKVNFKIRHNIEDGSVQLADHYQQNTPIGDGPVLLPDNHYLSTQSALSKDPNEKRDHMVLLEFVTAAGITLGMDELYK
Procedure: Cellular Functional Assays: Internalization of Sphingosine-1-Phosphate Receptor 1 (S1P1) in a Human Cell Line (U2OS) in a 384-Well Format Using a Cell Imaging Analysis.
The S1P1 internalization assay was performed in 384 well plates (Corning® 384 black with clear bottom 3712) using S1P1-U2OS cells from BioImage (C039A), a human epithelial cell line (Human Bone Osteosarcoma Epithelial Cells). These cells expressed the human S1P1 Receptor fused to the green fluorescent protein (EGFP). A standard CMV promoter (cytomegalovirus promoter) controls the expression of S1P1-EGFP and continuous expression was maintained by addition of geneticin to the culture medium.
S1P1 Receptor desensitization induced the internalization of the membrane-localized S1P1-EGFP fusion protein to endosomes, which can be monitored by cell imaging analysis.
The cells are plated in low serum medium (Dulbecco's Modified Eagle Medium (DMEM) with Glutamax-1 and high glucose, 1% Penicillin/Streptomycin, 1% Fetal Calf Serum (FCS), 0.5 mg/ml Geneticin) overnight.
The next day, S1P1-U2OS cells are incubated in 20 μl serum free medium (DMEM with Glutamax-1 and high glucose, 0.1% of fatty-acid free Bovin Serum Albumin (BSA), 10 mM, N′-2-Hydroxyethylpiperazine-N′-2 ethanesulphonic acid (HEPES) 1M) for 2 hours at 37° C./5% CO2.
The cells are then treated with 4 μl compounds/agonists (6×/3% DMSO) for a total volume of 24 μl, and plates are incubated for 1 hour at 37° C./5% CO2.
S1P1-U2OS cells are fixed with 25 μl Paraformaldehyde 8% and stained with Hoechst 33345 dye (1:1000) for 20 minutes.
They were then washed 3 times with Phosphate Buffered Saline (PBS) and plates are sealed.
The internalization of the receptor S1P1-EGFP is measured on Cellomics by calculating the “spot count per object” (“object” corresponds to nuclear and “spot” corresponds to S1P1-EGFP receptor). Internalization data were observed thanks to vHCS View and analyzed using Genedata® software.

[2] = 96 well-plate, read-out: S1P3 binding IC50 (M) (96 well-plate)
[3] = 96 well-plate, read-out: S1P1 binding IC50 (M) (96 well-plate)
[4] = 384 well-plate, read-out: S1P1 binding IC50 (M) (384 well-plate)
[5] = 384 well-plate, read-out: S1P3 binding IC50 (M) (384 well-plate)

Sequence of S1P3 (Q99500 whole entry, species assumed): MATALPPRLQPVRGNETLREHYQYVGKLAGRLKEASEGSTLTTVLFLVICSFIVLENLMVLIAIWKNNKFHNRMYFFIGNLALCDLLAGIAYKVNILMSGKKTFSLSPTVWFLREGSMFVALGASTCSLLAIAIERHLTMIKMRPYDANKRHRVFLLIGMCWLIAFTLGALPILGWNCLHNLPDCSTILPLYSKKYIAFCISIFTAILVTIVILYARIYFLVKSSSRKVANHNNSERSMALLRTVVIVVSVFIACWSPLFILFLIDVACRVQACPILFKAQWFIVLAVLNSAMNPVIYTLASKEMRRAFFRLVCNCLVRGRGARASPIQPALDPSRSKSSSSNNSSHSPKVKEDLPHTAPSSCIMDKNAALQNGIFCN

| Compound | IC50 (S1P3; [2]) [M] | IC50 (S1P1; [3]) [M] | IC50 (S1P1; [4]) [M] | EC50 [1] [nM] | IC50 (S1P3; [5]) [M] |
| --- | --- | --- | --- | --- | --- |
| CCc1ccccc1-c1ccc(-c2nc(-c3cnc(N)c(Cl)c3)no2)cc1COC [Example 43, 3-chloro-5-{5-[2′-ethyl-2-(methoxymethyl)biphenyl-4-yl]-1,2,4-oxadiazol-3-yl}pyridin-2-amine] | 1.12e-05 | 2.44e-09 | 4.1e-08 | 33.5 |  |
| COCc1cc(-c2nc(-c3ccc(NCC(O)CO)nc3)no2)ccc1-c1ccccc1C (centres unmarked) [Example 45, 3-[(5-{5-[2-(methoxymethyl)-2′-methylbiphenyl-4-yl]-1,2,4-oxadiazol-3-yl}pyridin-2-yl)amino]propane-1,2-diol, hydrochloride salt] | 9.31e-06 | 2.88e-09 | 1.4e-08 | 22.4 | 7.94e-06 |
| COCc1cc(-c2nc(-c3cnc(N)c(Cl)c3)no2)ccc1-c1ccccc1F [Example 46, 3-chloro-5-{5-[2′-fluoro-2-(methoxymethyl)biphenyl-4-yl]-1,2,4-oxadiazol-3-yl}pyridin-2-amine] | 7.21e-06 | 3.31e-09 | 4.42e-08 | 59.3 |  |
| COCc1cc(-c2nc(-c3ccc(NCCCCO)nc3)no2)ccc1-c1ccccc1C [Example 51, 4-[(5-{5-[2-(methoxymethyl)-2′-methylbiphenyl-4-yl]-1,2,4-oxadiazol-3-yl}pyridin-2-yl)amino]butan-1-ol, hydrochloride salt] | 1.79e-05 | 1.05e-08 |  | 85.3 | 2e-05 |
| COCc1cc(-c2nc(-c3ccc(N)nc3)no2)ccc1-c1ccccc1F [Example 52, 5-{5-[2′-fluoro-2-(methoxymethyl)biphenyl-4-yl]-1,2,4-oxadiazol-3-yl}pyridin-2-amine] | 3.62e-06 | 1.65e-09 | 1.82e-08 | 23.1 | 3.25e-06 |
| COCc1cc(-c2nc(-c3cnc(NCCCC(=O)O)c(C)c3)no2)ccc1-c1ccccc1C [Example 57, 4-[(5-{5-[2-(methoxymethyl)-2′-methylbiphenyl-4-yl]-1,2,4-oxadiazol-3-yl}-3-methylpyridin-2-yl)amino]butanoic acid, hydrochloride salt] | 7.44e-06 | 5.6e-09 |  | 81.4 | 8.67e-06 |
| Cc1ccccc1-c1ccc(-c2nc(-c3cnc(NCCC(=O)O)c(C)c3)no2)cc1C(F)(F)F [Example 59, N-(3-methyl-5-{5-[2′-methyl-2-(trifluoromethyl)biphenyl-4-yl]-1,2,4-oxadiazol-3-yl}pyridin-2-yl)-beta-alanine, hydrochloride salt] | 2e-05 | 1.04e-08 | 4.56e-08 | 156 |  |
| COCc1cc(-c2nc(-c3cnc(Cl)c(F)c3)no2)ccc1-c1ccccc1C [Example 60, 2-chloro-3-fluoro-5-{5-[2-(methoxymethyl)-2′-methylbiphenyl-4-yl]-1,2,4-oxadiazol-3-yl}pyridine] | 6.53e-06 | 2.83e-09 | 4.34e-09 | 19.5 | 3e-06 |
| COCCCNc1ncc(-c2noc(-c3ccc(-c4ccccc4C)c(COC)c3)n2)cc1Cl [Example 82, 3-chloro-5-(5-(2-(methoxymethyl)-2′-methylbiphenyl-4-yl)-1,2,4-oxadiazol-3-yl)-N-(3-methoxypropyl)pyridin-2-amine] |  |  | 4.56e-08 | 128 |  |
| COCc1cc(-c2nc(-c3cnc(NCCCO)c(Cl)c3)no2)ccc1-c1ccccc1C [Example 83, 3-(3-chloro-5-(5-(2-(methoxymethyl)-2′-methylbiphenyl-4-yl)-1,2,4-oxadiazol-3-yl)pyridin-2-ylamino)propan-1-ol] |  | 2.9e-09 |  | 46.7 |  |

Second part, the molecule after the results:

| IC50 (S1P3; [2]) [M] | IC50 (S1P1; [3]) [M] | IC50 (S1P1; [4]) [M] | EC50 [1] [nM] | IC50 (S1P3; [5]) [M] | Compound |
| --- | --- | --- | --- | --- | --- |
| 1.37e-06 | 3.15e-09 |  | 28.7 |  | COCc1cc(-c2nc(-c3cnc(NCCC(=O)O)c(Cl)c3)no2)ccc1-c1ccccc1F [Example 48, N-(3-chloro-5-{5-[2′-fluoro-2-(methoxymethyl)biphenyl-4-yl]-1,2,4-oxadiazol-3-yl}pyridin-2-yl)-beta-alanine, hydrochloride salt] |
| 5.82e-06 | 1.58e-09 | 1.98e-08 | 17.3 | 9.45e-06 | COCc1cc(-c2nc(-c3cnc(NCCC(=O)O)c(Cl)c3)no2)ccc1-c1ccccc1Cl [Example 50, N-(3-chloro-5-{5-[2′-chloro-2-(methoxymethyl)biphenyl-4-yl]-1,2,4-oxadiazol-3-yl}pyridin-2-yl)-beta-alanine, hydrochloride salt] |
| 3.1e-06 | 6.38e-09 |  | 99.2 |  | COCc1cc(-c2nc(-c3cnc(NCCC(=O)O)c(C)c3)no2)ccc1-c1ccccc1F [Example 53, N-(5-{5-[2′-fluoro-2-(methoxymethyl)biphenyl-4-yl]-1,2,4-oxadiazol-3-yl}-3-methylpyridin-2-yl)-beta-alanine, hydrochloride salt] |
| 9.32e-07 | 2.01e-09 |  | 16.4 |  | COCc1cc(-c2nc(-c3cnc(NCCCC(=O)O)c(Cl)c3)no2)ccc1-c1ccccc1F [Example 54, 4-[(3-chloro-5-{5-[2′-fluoro-2-(methoxymethyl)biphenyl-4-yl]-1,2,4-oxadiazol-3-yl}pyridin-2-yl)amino]butanoic acid, hydrochloride salt] |
| 2.82e-06 | 6.02e-09 |  | 64.5 | 3.39e-06 | COCc1cc(-c2nc(-c3cnc(NCCCC(=O)O)c(C)c3)no2)ccc1-c1ccccc1F [Example 55, 4-[(5-{5-[2′-fluoro-2-(methoxymethyl)biphenyl-4-yl]-1,2,4-oxadiazol-3-yl}-3-methylpyridin-2-yl)amino]butanoic acid, hydrochloride salt] |
| 2.09e-06 | 1.71e-09 | 4.77e-09 | 40.3 | 1.71e-06 | COCc1cc(-c2nc(-c3cnc(NCCCC(=O)O)c(Cl)c3)no2)ccc1-c1ccccc1C [Example 56, 4-[(3-chloro-5-{5-[2-(methoxymethyl)-2′-methylbiphenyl-4-yl]-1,2,4-oxadiazol-3-yl}pyridin-2-yl)amino]butanoic acid, hydrochloride salt] |
| 9.3e-06 | 2.94e-09 | 2.48e-08 | 45.5 | 5.26e-06 | COCc1cc(-c2nc(-c3cnc(NCCC(=O)O)c(C)c3)no2)ccc1-c1ccccc1C [Example 58, N-(5-{5-[2-(methoxymethyl)-2′-methylbiphenyl-4-yl]-1,2,4-oxadiazol-3-yl}-3-methylpyridin-2-yl)-beta-alanine, hydrochloride salt] |
| 3.87e-06 | 5.4e-09 | 1.73e-08 | 50 |  | O=C(O)CCNc1ncc(-c2noc(-c3ccc(-c4ccccc4F)c(C(F)(F)F)c3)n2)cc1Cl [Example 63, N-(3-chloro-5-{5-[2′-fluoro-2-(trifluoromethyl)biphenyl-4-yl]-1,2,4-oxadiazol-3-yl}pyridin-2-yl)-beta-alanine] |
